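Assay format: 96-well plates, 48-hour exposure. TGI: total growth inhibition.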
Legend:
Test in all cases: NCI tumour cell line growth inhibition, 48 h
IGROV1 ovarian = system: IGROV1 ovarian
786-0 renal = system: 786-0 renal
HT29 colon = system: HT29 colon
SNB-75 CNS = system: SNB-75 CNS
NCI-H460 lung = system: NCI-H460 lung
SK-MEL-2 melanoma = system: SK-MEL-2 melanoma
SF-295 CNS = system: SF-295 CNS
RPMI-8226 leukemia = system: RPMI-8226 leukemia
DMS 114 small cell lung = system: DMS 114 small cell lung
M14 melanoma = system: M14 melanoma
MOLT-4 leukemia = system: MOLT-4 leukemia
SW-620 colon = system: SW-620 colon
EKVX NSCLC = system: EKVX NSCLC
A498 renal = system: A498 renal
UACC-62 melanoma = system: UACC-62 melanoma
SF-539 CNS = system: SF-539 CNS
SK-MEL-5 melanoma = system: SK-MEL-5 melanoma
ACHN renal = system: ACHN renal
SK-OV-3 ovarian = system: SK-OV-3 ovarian
KM20L2 colon = system: KM20L2 colon
NCI-H23 lung = system: NCI-H23 lung
NCI-H522 lung = system: NCI-H522 lung
SNB-78 CNS = system: SNB-78 CNS
COLO 205 colon = system: COLO 205 colon
XF 498 CNS = system: XF 498 CNS
U251 CNS = system: U251 CNS
A549 NSCLC = system: A549 NSCLC
UACC-257 melanoma = system: UACC-257 melanoma
RXF-631 renal = system: RXF-631 renal
OVCAR-3 ovarian = system: OVCAR-3 ovarian
MALME-3M melanoma = system: MALME-3M melanoma
SF-268 CNS = system: SF-268 CNS
OVCAR-8 ovarian = system: OVCAR-8 ovarian
UO-31 renal = system: UO-31 renal
TK-10 renal = system: TK-10 renal
K-562 leukemia = system: K-562 leukemia
SN12C renal = system: SN12C renal
KM12 colon = system: KM12 colon
HCT-15 colon = system: HCT-15 colon
HCT-116 colon = system: HCT-116 colon
CCRF-CEM leukemia = system: CCRF-CEM leukemia
HCC-2998 colon = system: HCC-2998 colon
SR leukemia = system: SR leukemia
LXFL 529 NSCLC = system: LXFL 529 NSCLC
LOX IMVI melanoma = system: LOX IMVI melanoma
SK-MEL-28 melanoma = system: SK-MEL-28 melanoma
SNB-19 CNS = system: SNB-19 CNS
M19-MEL melanoma = system: M19-MEL melanoma
HL-60(TB) leukemia = system: HL-60(TB) leukemia
HOP-92 NSCLC = system: HOP-92 NSCLC
OVCAR-5 ovarian = system: OVCAR-5 ovarian

Measured: TGI

C[Si](C)(C)/C=C\CCCN1C(=O)CCC1=O
> 100 µM: all assays above

From PubChem BioAssay (NCI)
